Laboratory results from ChEMBL document CHEMBL3872232, “2-Azetidinones: Synthesis and biological evaluation as potential anti-breast cancer agents” (Eur J Med Chem, 2016).
pIC50: −log10 of the molar value.

Legend:
[1] = Antiproliferative activity against human MCF7 cells after 48 hrs by MTT assay; type: functional, cell-based; conditions: MCF7, 48 h
[2] = Antiproliferative activity against human MDA-MB-231 cells after 48 hrs by MTT assay; type: functional, cell-based; conditions: MDA-MB-231, 48 h
[3] = Antiproliferative activity against human mammary epithelial cells after 48 hrs by MTT assay; type: cell-based, Epithelial cell; conditions: for IC50: epithelial cell; for pIC50: Homo sapiens, Epithelial cell, 48 h, read-out: IC50
[4] = organism: Homo sapiens; assay: Inhibition of Akt in human MDA-MB-231 cells assessed as ratio of phosphorylated Akt to GAPDH expression level at 100 nM after 48 hrs by immunoblot analysis (reference value: 0.33 to 0.81); type: cell-based
[5] = organism: Homo sapiens; assay: Inhibition of Akt in human MDA-MB-231 cells assessed as ratio of phosphorylated GSK-3beta to GAPDH expression level at 100 nM after 48 hrs by immunoblot analysis (reference value: 0.14 to 1.50); type: cell-based
[6] = tested on: MDA-MB-231; assay: Effect on Cdk2 mRNA expression in human MDA-MB-231 cells assessed as ratio of Cdk2 to GAPDH expression level at 5 uM after 24 hrs by RT-PCR method (reference value: 0.26); type: functional
[7] = tested on: MDA-MB-231; assay: Effect on cyclin E mRNA expression in human MDA-MB-231 cells assessed as ratio of cyclin E to GAPDH expression level at 5 uM after 24 hrs by RT-PCR method (reference value: 0.13); type: functional
[8] = tested on: MDA-MB-231; assay: Induction of apoptosis in human MDA-MB-231 cells assessed as necrotic cells at 5 uM after 24 hrs by Annexin V-FITC/propidium iodide staining based flow cytometry (reference value: 1.3%); type: functional
[9] = tested on: MCF7; assay: Induction of apoptosis in human MCF7 cells assessed as early apoptotic cells at 5 uM after 24 hrs by Annexin V-FITC/propidium iodide staining based flow cytometry (reference value: 1.6%); type: functional
[10] = tested on: MDA-MB-231; assay: Effect on p21 mRNA expression in human MDA-MB-231 cells assessed as ratio of p21 to GAPDH expression level at 5 uM after 24 hrs by RT-PCR method (reference value: 0.02); type: functional
[11] = tested on: MDA-MB-231; assay: Effect on p27 mRNA expression in human MDA-MB-231 cells assessed as ratio of p27 to GAPDH expression level at 5 uM after 24 hrs by RT-PCR method (reference value: 0.23); type: functional
[12] = tested on: MDA-MB-231; assay: Effect on Bid gene expression in human MDA-MB-231 cells assessed as ratio of Bid to beta-actin expression level at 5 uM after 24 hrs by RT-PCR method (reference value: 0.17); type: functional
[13] = tested on: MDA-MB-231; assay: Induction of apoptosis in human MDA-MB-231 cells assessed as late apoptotic cells at 5 uM after 24 hrs by Annexin V-FITC/propidium iodide staining based flow cytometry (reference value: 1.8%); type: functional
[14] = tested on: MDA-MB-231; assay: Effect on cyclin D1 mRNA expression in human MDA-MB-231 cells assessed as ratio of cyclin D1 to GAPDH expression level at 5 uM after 24 hrs by RT-PCR method (reference value: 0.71); type: functional
[15] = organism: Homo sapiens; assay: Inhibition of Akt in human MDA-MB-231 cells assessed as ratio of phosphorylated GSK-3beta to GAPDH expression level at 2 uM after 48 hrs by immunoblot analysis (reference value: 0.14 to 1.50); type: cell-based
[16] = tested on: MCF7; assay: Induction of apoptosis in human MCF7 cells assessed as late apoptotic cells at 5 uM after 24 hrs by Annexin V-FITC/propidium iodide staining based flow cytometry (reference value: 2.3%); type: functional
[17] = tested on: MDA-MB-231; assay: Effect on p53 gene expression in human MDA-MB-231 cells assessed as ratio of p53 to beta-actin expression level at 5 uM after 24 hrs by RT-PCR method (reference value: 0.22); type: functional
[18] = Cell cycle arrest in human MCF7 cells assessed as accumulation at G0/G1 phase at 5 uM after 24 hrs by propidium iodide staining based flow cytometry (reference value: 83.25%); type: functional
[19] = tested on: MDA-MB-231; assay: Ratio of Bcl-2 to Bax gene expression in human MDA-MB-231 cells at 5 uM after 24 hrs by RT-PCR method (reference value: 0.03); type: functional
[20] = tested on: MCF7; assay: Induction of apoptosis in human MCF7 cells assessed as necrotic cells at 5 uM after 24 hrs by Annexin V-FITC/propidium iodide staining based flow cytometry (reference value: 3.7%); type: functional
[21] = Cell cycle arrest in human MCF7 cells assessed as accumulation at S phase at 5 uM after 24 hrs by propidium iodide staining based flow cytometry (reference value: 4.23%); type: functional
[22] = tested on: MDA-MB-231; assay: Inhibition of Akt phosphorylation in human MDA-MB-231 cells after 48 hrs by immunoblot analysis; type: cell-based
[23] = Safety index, ratio of compound IC50 to colchicine IC50 for human mammary epithelial cells; type: ADME, cell-based, Epithelial cell; conditions: read-out: Ratio IC50
[24] = organism: Homo sapiens; assay: Inhibition of Akt in human MDA-MB-231 cells assessed as ratio of phosphorylated GSK-3beta to GAPDH expression level at 5 uM after 48 hrs by immunoblot analysis (reference value: 0.14 to 1.50); type: cell-based
[25] = organism: Homo sapiens; assay: Inhibition of Akt in human MDA-MB-231 cells assessed as ratio of phosphorylated Akt to GAPDH expression level at 10 uM after 48 hrs by immunoblot analysis (reference value: 0.33 to 0.81); type: cell-based
[26] = tested on: MDA-MB-231; assay: Inhibition of Akt in human MDA-MB-231 cells after 48 hrs by ELISA; type: cell-based
[27] = tested on: MDA-MB-231; assay: Induction of apoptosis in human MDA-MB-231 cells assessed as early apoptotic cells at 5 uM after 24 hrs by Annexin V-FITC/propidium iodide staining based flow cytometry (reference value: 0.5%); type: functional
[28] = organism: Homo sapiens; assay: Inhibition of Akt in human MDA-MB-231 cells assessed as ratio of phosphorylated Akt to GAPDH expression level at 5 uM after 48 hrs by immunoblot analysis (reference value: 0.33 to 0.81); type: cell-based
[29] = Cell cycle arrest in human MCF7 cells assessed as accumulation at sub-G1 phase at 5 uM after 24 hrs by propidium iodide staining based flow cytometry (reference value: 3.58%); type: functional
[30] = organism: Homo sapiens; assay: Inhibition of Akt in human MDA-MB-231 cells assessed as ratio of phosphorylated Akt to GAPDH expression level at 2 uM after 48 hrs by immunoblot analysis (reference value: 0.33 to 0.81); type: cell-based
[31] = tested on: MDA-MB-231; assay: Effect on Cdk6 mRNA expression in human MDA-MB-231 cells assessed as ratio of Cdk6 to GAPDH expression level at 5 uM after 24 hrs by RT-PCR method (reference value: 1.37); type: functional
[32] = organism: Homo sapiens; assay: Inhibition of Akt in human MDA-MB-231 cells assessed as ratio of phosphorylated GSK-3beta to GAPDH expression level at 10 uM after 48 hrs by immunoblot analysis (reference value: 0.14 to 1.50); type: cell-based
[33] = Cell cycle arrest in human MCF7 cells assessed as accumulation at G2/M phase at 5 uM after 24 hrs by propidium iodide staining based flow cytometry (reference value: 9.29%); type: functional

## COC(=O)/C(=C/c1ccccc1)CN1C(=O)[C@@H](OC)[C@H]1c1cccc([N+](=O)[O-])c1
[1]
  pIC50: 4.82
[2]
  pIC50: 4.84
[3]
  IC50: Non-Toxic

## COC[C@H]1OC(=O)c2coc3c2[C@@]1(C)C1=C(C3=O)[C@@H]2CCC(=O)[C@@]2(C)C[C@H]1OC(C)=O
[4]
  Ratio: 0.01
[5]
  Ratio: 0.61

## COC(=O)/C(=C/c1ccccc1)CN1C(=O)[C@@H](OC)[C@H]1c1ccc(F)cc1
[1]
  pIC50: 4.81
[2]
  pIC50: 4.66
[3]
  pIC50: 4.56

## COC(=O)/C(=C/c1ccccc1)CN1C(=O)[C@@H](OC)[C@H]1c1ccccc1C(F)(F)F
[2]
  pIC50: 4.75
[3]
  IC50: Non-Toxic

## CCOC(=O)/C(=C/c1ccccc1)CN1C(=O)[C@@H](OC)[C@H]1c1ccc(F)cc1
[1]
  pIC50: 4.72
[2]
  pIC50: 4.86
[3]
  IC50: Non-Toxic

## CO[C@@H]1C(=O)N(C/C(C#N)=C/c2ccccc2)[C@@H]1c1ccc(Cl)cc1Cl
[1]
  pIC50: 4.50
[2]
  pIC50: 4.77
[3]
  pIC50: < 4.00

## CO[C@@H]1C(=O)N(C/C(C#N)=C/c2ccccc2)[C@@H]1c1ccc(C)cc1
[6]
  Ratio: 0.22
[7]
  Ratio: 0.16
[8]
  Activity: 1.4%
[9]
  Activity: 9%
[10]
  Ratio: 0.08
[11]
  Ratio: 0.24
[12]
  Ratio: 0.32
[13]
  Activity: 4.1%
[14]
  Ratio: 0.64
[15]
  Ratio: 0.04
[16]
  Activity: 12.8%
[1]
  pIC50: 5.00
[17]
  Ratio: 0.17
[18]
  Activity: 83%
[19]
  Ratio: 0.02
[20]
  Activity: 1.9%
[21]
  Activity: 4.15%
[22]
  inhibition: Dose-dependent effect
[23]
  selectivity ratio: 10
[24]
  Ratio: 0.15
[25]
  Ratio: 0.06
[26]
  inhibition: Dose-dependent effect
[27]
  Activity: 1.3%
[28]
  Ratio: 0.09
[29]
  Activity: 2.22%
[2]
  pIC50: 5.03
[30]
  Ratio: 0.35
[31]
  Ratio: 0.51
[3]
  IC50: Non-Toxic
[32]
  Ratio: 0.17
[33]
  Activity: 9.43%

## COC(=O)/C(=C/c1ccccc1)CN1C(=O)[C@@H](OC)[C@H]1c1cccc(F)c1
[1]
  pIC50: 4.86
[2]
  pIC50: 4.46
[3]
  pIC50: 4.42

## COC(=O)/C(=C/c1ccccc1)CN1C(=O)[C@@H](OC)[C@H]1c1ccc(OC)cc1
[1]
  pIC50: 4.93
[2]
  pIC50: 4.85
[3]
  IC50: Non-Toxic

## CO[C@@H]1C(=O)N(C/C(C#N)=C/c2ccccc2)[C@@H]1c1cccc2ccccc12
[1]
  pIC50: 4.93
[3]
  IC50: Non-Toxic

## CO[C@@H]1C(=O)N(C/C(C#N)=C/c2ccccc2)[C@@H]1c1ccccc1Br
[1]
  pIC50: 4.96
[2]
  pIC50: 4.97
[3]
  IC50: Non-Toxic

## COC(=O)/C(=C/c1ccccc1)CN1C(=O)[C@@H](OC)[C@H]1c1cccc(Cl)c1
[1]
  pIC50: 4.60
[3]
  IC50: Non-Toxic
